The source of these data is patent US20110152228A1, “SPRAYABLE PHARMACEUTICAL COMPOSITIONS COMPRISING A CORTICOID AND AN OILY PHASE” (Galderma, S.A., priority 2005, published 2011).

The nature of data set [1]: Maximum solubility of clobetasol propionate in solvent oils, assessed visually (clarity/cloudiness). It is filed as physicochemical. How it is done: (§1) The maximum solubility of clobetasol propionate was studied in various solvent oils according to the invention, in order to allow the choice most suitable for the concentration of active agent to be solubilized.
The solubility can also be assessed visually. Thus, minute proportions of the active agent are gradually added to the solvent oil with stirring. Visual observation of the clarity of the solution is carried out.

A short description of data set [2]: Maximum solubility of clobetasol propionate in solvent oils, UV assaying method. It is filed as physicochemical. As for the experimental part: as §1
It is measured by the UV assaying method.
Saturated solutions are prepared according to the following protocol:
0.1% of clobetasol propionate is added to the oily excipient.
The entire mixture is stirred overnight and then left for two hours without stirring.
The solutions for UV-assaying are then prepared by taking the supernatant 0.1 g of this saturated solution is weighed into a 100 ml volumetric flask and then made up to 100 ml with absolute ethanol. The assaying makes it possible to obtain data for maximum solubility of the active agent in the solvent oil under consideration.

For `CCC(=O)O[C@]1(C(=O)CCl)[C@@H](C)C[C@H]2[C@@H]3CCC4=CC(=O)C=C[C@]4(C)[C@@]3(F)[C@@H](O)C[C@@]21C` [clobetasol propionate], the Visual solubility is given as 0.25% in data set [1] (solvent: Caprylic/capric triglycerides, maximum solubility); “insoluble” in data set [1] (solvent: Dioctyl ether); 0.14% in data set [1] (solvent: Isopropyl palmitate, maximum solubility); 0.16% in data set [1] (solvent: Octyldodecanol, maximum solubility). The “UV Solubility at 266 nm” value in data set [2] (solvent: Cetearyl isononanoate) is recorded as 0.16%; in data set [2] (solvent: Dioctyl ether), 0.12%; in data set [2] (solvent: Ethyl oleate), 0.79%; in data set [2] (solvent: Isopropyl palmitate), 0.17%; in data set [2] (solvent: Oleic acid) it was 0.45%; in data set [2] (solvent: Oleyl alcohol), 0.86%.
